{"source": "ChEMBL document CHEMBL3045206", "about": "“A facile synthesis of novel herbicidal 1-phenyl-piperazine-2,6-diones” (2005)", "assay_type_in_all_cases": "functional", "key": {"Solanum lycopersicum": {"system": "Solanum lycopersicum", "assay": "Herbicidal activity against Solanum lycopersicum (tomato) plant at 1200 g/ha applied as spray during post-emergence after 2 weeks under green house conditions"}, "Tagetes": {"system": "Tagetes", "assay": "Herbicidal activity against Tagetes (marigold) plant at 1200 g/ha applied as spray during post-emergence after 2 weeks under green house conditions"}, "Abutilon theophrasti": {"system": "Abutilon theophrasti", "assay": "Herbicidal activity against Abutilon theophrasti (velvetleaf) plant at 1200 g/ha applied as spray during post-emergence after 2 weeks under green house conditions"}}}
{"smiles": "O=C1CN2CCCCC2C(=O)N1c1cc(Cl)c(Cl)cc1F", "note": "(configuration not stated)", "values": [{"measurement": "Activity", "setting": "Solanum lycopersicum", "value": 75, "unit": "%"}, {"measurement": "Activity", "setting": "Tagetes", "value": 0, "unit": "%"}, {"measurement": "Activity", "setting": "Abutilon theophrasti", "value": 90, "unit": "%"}]}
{"smiles": "O=C1CN2CCCCC2C(=O)N1c1ccc(Cl)cc1F", "note": "(configuration not stated)", "values": [{"measurement": "Activity", "setting": "Solanum lycopersicum", "value": 35, "unit": "%"}, {"measurement": "Activity", "setting": "Tagetes", "value": 15, "unit": "%"}, {"measurement": "Activity", "setting": "Abutilon theophrasti", "value": 80, "unit": "%"}]}
{"smiles": "COc1cc(N2C(=O)CN3CCCCC3C2=O)c(F)cc1Cl", "note": "(configuration not stated)", "values": [{"measurement": "Activity", "setting": "Solanum lycopersicum", "value": 15, "unit": "%"}, {"measurement": "Activity", "setting": "Tagetes", "value": 0, "unit": "%"}, {"measurement": "Activity", "setting": "Abutilon theophrasti", "value": 50, "unit": "%"}]}
{"smiles": "O=C1CN2CCCCC2C(=O)N1c1cc(OC2CCCC2)c(Cl)cc1F", "note": "(configuration not stated)", "values": [{"measurement": "Activity", "setting": "Solanum lycopersicum", "value": 60, "unit": "%"}, {"measurement": "Activity", "setting": "Tagetes", "value": 10, "unit": "%"}, {"measurement": "Activity", "setting": "Abutilon theophrasti", "value": 90, "unit": "%"}]}
{"smiles": "O=C1CN2CCCC2C(=O)N1c1cc(OC2CCCC2)c(Cl)cc1F", "note": "(configuration not stated)", "values": [{"measurement": "Activity", "setting": "Solanum lycopersicum", "value": 0, "unit": "%"}, {"measurement": "Activity", "setting": "Tagetes", "value": 0, "unit": "%"}, {"measurement": "Activity", "setting": "Abutilon theophrasti", "value": 50, "unit": "%"}]}
{"smiles": "C#CCOc1cc(N2C(=O)CN(C)CC2=O)c(F)cc1Cl", "values": [{"measurement": "Activity", "setting": "Solanum lycopersicum", "value": 75, "unit": "%"}, {"measurement": "Activity", "setting": "Tagetes", "value": 0, "unit": "%"}, {"measurement": "Activity", "setting": "Abutilon theophrasti", "value": 95, "unit": "%"}]}
{"smiles": "CN1CC(=O)N(c2cc(OC3CCCC3)c(Cl)cc2F)C(=O)C1", "values": [{"measurement": "Activity", "setting": "Solanum lycopersicum", "value": 0, "unit": "%"}, {"measurement": "Activity", "setting": "Tagetes", "value": 0, "unit": "%"}, {"measurement": "Activity", "setting": "Abutilon theophrasti", "value": 75, "unit": "%"}]}
{"smiles": "CC(C)(C)N1CC(=O)N(c2cc(OC3CCCC3)c(Cl)cc2F)C(=O)C1", "values": [{"measurement": "Activity", "setting": "Solanum lycopersicum", "value": 0, "unit": "%"}, {"measurement": "Activity", "setting": "Tagetes", "value": 0, "unit": "%"}, {"measurement": "Activity", "setting": "Abutilon theophrasti", "value": 25, "unit": "%"}]}
{"smiles": "CC(C)OC(=O)c1cc(N2C(=O)CN(Cc3ccccc3)CC2=O)c(F)cc1Cl", "values": [{"measurement": "Activity", "setting": "Solanum lycopersicum", "value": 10, "unit": "%"}, {"measurement": "Activity", "setting": "Tagetes", "value": 0, "unit": "%"}, {"measurement": "Activity", "setting": "Abutilon theophrasti", "value": 0, "unit": "%"}]}
